Data published in patent US6653337B2, “Therapy of auto-immune disease by a photochemotherapeutical method” (Meiji Seika Kaisha, Ltd., priority 1996, dated 2003).
Where “and” joins values, the source holds several entries; their conditions need not be identical. Identical values can stand only once. Entries after “also recorded” stand apart in the source; their conditions may differ.

Tests used:
[1] = tested on: CD-1 mice (male); assay: Acute toxicity of NPe6 in mice (LD50); type: in vivo
[2] = in vivo
[3] = tested on: anti-ds-DNA antibody; assay: Anti-ds-DNA antibody value in blood of MRL/1pr mice after NPe6 photochemotherapy (Anti-DNA kit); type: in vivo
From the text: (§1) MRL/1pr mice, which are known as a model of a spontaneous systemic auto-immune diseases, have such inherent property that they spontaneously develop the systemic auto-immune disease due to 1pr-gene. In this case, the characteristic observations of the resulting auto-immune disease include the formation of lymphoma and splenoma as caused by proliferation of heterolymphoid cells, the production of anti-ds-DNA antibody as the auto-antibody, and (or) the outbreak of lupus nephritis owing to the deposition of immune complexes, whereby an early death of the MRL/1pr mice can naturally be involved. For instance, untreated MRL/1pr mice usually have such nature that their mortality reaches 50% at 25 week-old.
(§2) To MRL/1pr mice (eight mice per group) of 18 week-old age which have been affected completely by auto-immune diseases, a solution of mono-L-aspartyl chlorin e6 tetrasodium salt (abbreviation: NPe6) dissolved in a physiological saline solution at a NPe6 concentration of 0.1 mg/ml was intra-venously administered in such an amount to give a dosage of NPe6 of 0.5 mg/kg. […] After 24 hours from the completion of the therapeutic treatments, which was counted from the final run of irradiation of the laser light applied to the mice of the treated group, and thus at the time when the mice tested became 19 week-old, the judgment was made about the therapeutical effects appeared on the treated mice. […]

[4] = tested on: MRL/1pr mice; assay: Kidney function (urea nitrogen in blood, protein in urine) of MRL/1pr mice after NPe6 photochemotherapy; type: in vivo; settings: 19 weeks old, 24 h after 8th laser irradiation, NPe6 0.5 mg/kg i.v. + 664 nm laser, eight times
From the text: as §1, §2

[5] = tested on: MRL/1pr mice; assay: Survival of MRL/1pr mice after NPe6 photochemotherapy; type: in vivo; settings: for Survival rate (%) of the mice: treated group, 8 mice
From the text: as §1
(§3) To MRL/1pr mice (eight mice per group) of 18 week-old age which have been affected completely by auto-immune diseases, a solution of mono-L-aspartyl chlorin e6 tetrasodium salt (abbreviation: NPe6) dissolved in a physiological saline solution at a NPe6 concentration of 0.1 mg/ml was intra-venously administered in such an amount to give a dosage of NPe6 of 0.5 mg/kg. After 30 minutes from the administration of NPe6, the mice were irradiated with a laser light at wave-length of 664 nm in such a manner that the skin surface on the abdominal region already shaved off of said mice would receive the laser light over a wide area of about 25 cm^2 per mouse tested at an intensity of 20 Joules/cm^2. Thus, the NPe6 contained in the blood stream within the blood vessel beneath the skin of the abdominal region of the mice was irradiated with the laser light and thereby was excited photochemically. Such photochemotherapeutic procedure comprising the intravenous administration of NPe6 and the irradiation of the laser light was applied eight times to each of the mice under test for 10 days. After 24 hours from the completion of the therapeutic treatments, which was counted from the final run of irradiation of the laser light applied to the mice of the treated group, and thus at the time when the mice tested became 19 week-old, the judgment was made about the therapeutical effects appeared on the treated mice. Further, the survival effect on the treated mice was also observed over the period of from the start of practicing this therapeutic treatments to the point of the 49 week-old age of the mice.
For the untreated group of MRL/1pr mice (10 mice per group, 18-weeks old), merely a physiological saline solution (containing no NPe6) was administered intravenously in the same amount as that for the treated group of mice, and then the mice were irradiated with a laser light as similar as the treated group of mice.
(3) After the completion of the treatment as effected by the above-mentioned photochemotherapeutic procedure, the mice under the test were bred to be 49-weeks old and the survival rate (%) of the mice was measured once a week.

[6] = tested on: MRL/1pr mice; assay: Liver (GPT enzyme in blood) and skin safety in MRL/1pr mice after NPe6 photochemotherapy; type: in vivo
Experimental: as §3, with “Such photochemotherapeutic procedure comprising the intravenous administration of NPe6 and the irradiation of the laser light was applied eight times to each of the mice under test for 10 days.” left out, “Further, the survival effect on the treated mice was also observed over the period of from the start of practicing this therapeutic treatments to the point of the 49 week-old age of the mice.” left out

**Q.** With C=Cc1c(C)c2cc3nc(c(CC(=O)N[C@@H](CC(=O)[O-])C(=O)[O-])c4[nH]c(cc5nc(cc1[nH]2)C(C)=C5CC)c(C)c4C(=O)[O-])[C@@H](CCC(=O)[O-])[C@@H]3C.[Na+].[Na+].[Na+].[Na+] [NPe6, mono-L-aspartyl chlorin e6 tetrasodium salt] as the compound, how does the “acute toxicity, LD50 value” [1] read?
**A.** 164 mg/kg

**Q.** And the “photo-toxicity test: reactions such as erythema, edema” value [2]?
**A.** no reactions such as erythema, edema

**Q.** What about the “antibody value of anti-ds-DNA antibody in blood” value ([3]; 19 weeks old, 24 h after 8th laser irradiation, NPe6 0.5 mg/kg i.v. + 664 nm laser 20 Joules/cm^2, eight times for 10 days) of the same compound?
**A.** 5.7±5.3 IU/ml

**Q.** And the “effect on antibody value of the auto-antibody (anti-ds-DNA) in blood, in words” value ([3]; NPe6 i.v. + laser light at 664 nm, versus untreated group)?
**A.** decreasing remarkably the antibody value; also recorded: significantly and remarkably decreased

**Q.** And the “content of protein in urine” value [4]?
**A.** 85.2 ± 5.0 mg/dL

**Q.** What about the “content of urea nitrogen in blood” value [4] of the same compound?
**A.** 22.3 ± 1.4 mg/dL

**Q.** And the “Survival rate (%) of the mice” value ([5]; age 18 weeks (start of treatment), number in parentheses = surviving mice)?
**A.** 100 (8) %

**Q.** What about the “Survival rate (%) of the mice” value ([5]; age 20 weeks) of the same compound?
**A.** 100 (8) %

**Q.** What about the “Survival rate (%) of the mice” value ([5]; age 21 weeks) of the same compound?
**A.** 100 (8) %

**Q.** What about the “Survival rate (%) of the mice” value ([5]; age 23 weeks) of the same compound?
**A.** 100 (8) %

**Q.** What about the “Survival rate (%) of the mice” value ([5]; age 25 weeks) of the same compound?
**A.** 100% and 100 (8) %

**Q.** What about the “Survival rate (%) of the mice” value ([5]; age 27 weeks) of the same compound?
**A.** 100 (8) %

**Q.** And the “Survival rate (%) of the mice” value ([5]; age 30 weeks)?
**A.** 100 (8) %

**Q.** What about the “Survival rate (%) of the mice” value ([5]; age 33 weeks) of the same compound?
**A.** 88 (7) %

**Q.** What about the “Survival rate (%) of the mice” value ([5]; age 36 weeks) of the same compound?
**A.** 88 (7) %

**Q.** And the “Survival rate (%) of the mice” value ([5]; age 43 weeks)?
**A.** 75 (6) %

**Q.** And the “Survival rate (%) of the mice” value ([5]; age 46 weeks)?
**A.** 63 (5) %

**Q.** And the “Survival rate (%) of the mice” value ([5]; age 49 weeks)?
**A.** 63 (5) %

**Q.** And the “age at which the survival rate of the mice is 50 %” value ([5]; treated group of MRL/1pr mice)?
**A.** > 49 weeks

**Q.** And the “content of GPT enzyme in the blood compared with untreated group” value ([6]; 19 weeks old, 24 h after 8th laser irradiation)?
**A.** no difference was found

**Q.** What about the “visual observation of the skin after eight percutaneous laser irradiations” value ([6]; shaved abdominal region, 664 nm laser 20 Joules/cm^2) of the same compound?
**A.** not observed visually that any action of changing the skin was involved
